# Test results published in article PMC8879074, “A Novel Small Molecular Prostaglandin Receptor EP4 Antagonist, L001, Suppresses Pancreatic Cancer Metastasis” (Molecules, 2022).
# Tests used:
# [1] = tested on: YAP/TEAD reporter in Pan02 cells; experiment: TEAD-driven luciferase reporter assay, Pan02; format: cell-based, murine; conditions: 16 h
# Description: (§1) CHO-K1 cells or pancreatic cancer cell lines were transfected with a cAMP responsive element (CRE) reporter or TEAD reporter using lipofectamine 2000 according to the manufacturer’s manual. […] Then, cells were lysed and luciferase activities were determined using Dual-Luciferase Reporter Assay Kit (Promega, Madison, WI, USA).
# [2] = molecular target: T1, mouse EP4 (Mus musculus, UniProt P32240); experiment: Calcium flux assay, mouse EP4; format: cell-based
# T1 construct: expressed in transfected cells; host or cells: CHO-Gα16
# Description: (§2) Calcium flux assay was conducted as described in our previous study. Briefly, CHO-Gα16 cells were transfected, respectively, with human EP1, human EP2, human EP3, human EP4, monkey EP4, mouse EP4 and rat EP4 overexpression constructs using lipofectamine 2000 according to the manufacturer’s manual. Cells were then seeded into a 96-well black plate with a cell density of 2 × 10^4 cells/100 μL per well for a 16-h culture. On the next day, cells were incubated for 45 min with reagents (100 μL/well) of Calcium-5 Assay Kit (Molecular Devices, San Jose, CA, USA). Then, cells were pre-treated with indicated concentrations of L001 for 15 min and stimulated with PGE2 (EC80). The calcium flux was detected subsequently by a Flexstation® 3 Multi-Mode Microplate Reader (Molecular Devices, San Jose, CA, USA).
# [3] = molecular target: T2, rat EP4 (Rattus norvegicus, UniProt P43114); experiment: Calcium flux assay, rat EP4; format: cell-based
# T2 construct: expressed in transfected cells; host or cells: CHO-Gα16
# Description: as §2
# [4] = tested on: YAP, CYR61, CTGF, Vimentin, Snail, E-cadherin mRNA in BxPC-3 cells; experiment: Real-time qPCR of YAP, YAP target genes and EMT markers, BxPC-3; format: cell-based, human; conditions: 12 h
# Description: (§3) Total RNA was extracted from cells using TRIzol reagent. The cDNA was synthesized by RT-PCR kit (Vazyme Biotech, Nanjing, China). The band intensity was determined by the gel image analysis system (Bio-Rad, Hercules, CA, USA). SYBR Green-based qPCR (Yeason, Shanghai, China) was conducted subsequently. Relative mRNA levels of target genes were normalized with β-actin. The sequences of primers are listed in Supplementary Table S1. The raw data are listed in Supplementary Table S2.
# [5] = molecular target: T3, human EP1 (Homo sapiens, UniProt P34995); experiment: Calcium flux assay, human EP1; format: cell-based; conditions: CHO-Gα16 cells, PGE2 (EC80)
# T3 construct: expressed in transfected cells; host or cells: CHO-Gα16
# T3 sequence (P34995 1-402): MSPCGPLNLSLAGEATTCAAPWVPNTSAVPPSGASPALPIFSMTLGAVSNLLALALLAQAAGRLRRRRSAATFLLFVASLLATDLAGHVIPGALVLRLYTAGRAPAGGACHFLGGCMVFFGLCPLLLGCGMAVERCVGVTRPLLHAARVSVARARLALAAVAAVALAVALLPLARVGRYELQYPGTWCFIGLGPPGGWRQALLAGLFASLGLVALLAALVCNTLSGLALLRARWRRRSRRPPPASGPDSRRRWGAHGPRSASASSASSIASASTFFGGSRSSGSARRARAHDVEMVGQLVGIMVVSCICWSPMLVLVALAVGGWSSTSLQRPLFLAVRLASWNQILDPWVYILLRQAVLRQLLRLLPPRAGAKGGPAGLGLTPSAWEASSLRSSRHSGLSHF
# Description: as §2
# [6] = tested on: ERK1/2 phosphorylation; experiment: Western blotting of PGE2-induced ERK1/2 phosphorylation; format: cell-based; conditions: pre-incubation 20 min, then 30 nM PGE2 for 5 min; dose-dependent
# [7] = tested on: BxPC-3 cells; experiment: 3D Matrigel tumor spheroid invasion assay, BxPC-3; format: cell-based, human; conditions: 0.1 μM PGE2, day 7
# Description: The 3D Matrigel invasion assay was performed as described. Pan02 and BxPC-3 cells were plated above a layer of Matrigel (ThermoFisher, Shanghai, China) and covered with growth medium containing 10% Matrigel. The culture medium containing different concentrations of compounds was changed every two days. After 7 days, cells with stellate invasive structure were photographed (OLYMPUS, Tokyo, Japan).
# [8] = tested on: Pan02 cells; experiment: Transwell migration assay, Pan02; format: cell-based, murine; conditions: Pan02; with PGE2; 24 h
# Description: The transwell assay was conducted as described previously, using 8 μm pore transwell inserts (Corning, NY, USA). Cells were suspended in serum-free DMEM and seeded into upper chambers at appropriate density. The bottom chamber was filled with DMEM supplemented with 10% fetal bovine serum and indicated concentrations of PGE2. The compounds were added in both upper and bottom chambers. […] Migrated cells were counted and quantified using image J.
# [9] = tested on: YAP, CYR61 and CTGF mRNA in Pan02 cells; experiment: Real-time qPCR of YAP and YAP target genes, Pan02; format: cell-based, murine; conditions: PGE2 0.1 μM, compound 10 μM, 12 h
# Description: as §3
# [10] = tested on: YAP/TEAD reporter in BxPC-3 cells; experiment: TEAD-driven luciferase reporter assay, BxPC-3; format: cell-based, human; conditions: 16 h
# Description: as §1
# [11] = tested on: Pan02 cells; experiment: Cell viability assay (MTS), Pan02; format: cell-based, murine; conditions: 72 h
# Description: Cells were seeded into 96-well plates and treated with varied concentrations of compounds for 72 hrs. Cell viabilities were determined by using MTS reagent (Promega, Madison, WI, USA) according to the manufacturer’s manual. Spectrophotometric absorbance at 490 nm was measured by Flexstation® 3 Multi-Mode Microplate Reader (Molecular Devices, San Jose, CA, USA). The experiments were independently repeated three times.
# [12] = molecular target: T4, human EP3 (Homo sapiens, UniProt P43115); experiment: Calcium flux assay, human EP3; format: cell-based; conditions: CHO-Gα16 cells, PGE2 (EC80)
# T4 construct: expressed in transfected cells; host or cells: CHO-Gα16
# T4 sequence (P43115 1-390): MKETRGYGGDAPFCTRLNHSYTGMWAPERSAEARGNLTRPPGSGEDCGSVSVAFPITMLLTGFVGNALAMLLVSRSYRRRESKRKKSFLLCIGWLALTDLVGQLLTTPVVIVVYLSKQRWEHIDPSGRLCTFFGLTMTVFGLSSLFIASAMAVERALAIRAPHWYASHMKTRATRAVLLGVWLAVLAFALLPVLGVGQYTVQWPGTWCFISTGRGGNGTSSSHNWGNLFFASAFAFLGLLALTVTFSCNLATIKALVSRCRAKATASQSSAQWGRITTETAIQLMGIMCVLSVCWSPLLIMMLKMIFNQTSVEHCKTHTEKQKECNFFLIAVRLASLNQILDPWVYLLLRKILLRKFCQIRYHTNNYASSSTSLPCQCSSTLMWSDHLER
# Description: as §2
# T2 sequence (P43114 whole entry): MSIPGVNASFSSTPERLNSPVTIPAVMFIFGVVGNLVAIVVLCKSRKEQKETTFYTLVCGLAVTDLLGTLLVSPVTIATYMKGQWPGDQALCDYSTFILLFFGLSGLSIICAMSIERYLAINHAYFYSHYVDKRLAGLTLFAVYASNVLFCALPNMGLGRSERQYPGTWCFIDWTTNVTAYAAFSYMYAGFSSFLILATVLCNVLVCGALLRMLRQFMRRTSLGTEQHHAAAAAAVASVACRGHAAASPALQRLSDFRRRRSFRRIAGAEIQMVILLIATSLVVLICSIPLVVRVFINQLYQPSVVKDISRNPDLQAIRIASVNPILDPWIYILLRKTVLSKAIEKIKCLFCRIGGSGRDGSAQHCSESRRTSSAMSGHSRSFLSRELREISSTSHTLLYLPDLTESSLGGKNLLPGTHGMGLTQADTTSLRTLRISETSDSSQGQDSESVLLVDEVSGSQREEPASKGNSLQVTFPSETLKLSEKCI
# T1 sequence (P32240 whole entry): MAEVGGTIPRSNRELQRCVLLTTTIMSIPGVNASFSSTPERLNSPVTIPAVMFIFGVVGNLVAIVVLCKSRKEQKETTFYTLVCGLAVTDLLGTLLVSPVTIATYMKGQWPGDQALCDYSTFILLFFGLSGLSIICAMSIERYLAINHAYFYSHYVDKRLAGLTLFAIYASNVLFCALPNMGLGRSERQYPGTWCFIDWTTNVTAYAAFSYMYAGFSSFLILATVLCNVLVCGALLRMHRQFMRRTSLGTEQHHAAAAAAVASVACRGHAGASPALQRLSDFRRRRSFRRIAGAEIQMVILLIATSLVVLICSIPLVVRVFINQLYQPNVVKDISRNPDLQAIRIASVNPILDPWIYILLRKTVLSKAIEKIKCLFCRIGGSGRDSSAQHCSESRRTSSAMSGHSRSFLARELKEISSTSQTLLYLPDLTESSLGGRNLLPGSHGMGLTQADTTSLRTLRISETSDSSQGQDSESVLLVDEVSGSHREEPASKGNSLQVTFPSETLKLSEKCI
compound,measurement,setting,value
C[C@H](NC(=O)c1c(Cc2cccc(C(F)(F)F)c2)sc2c1CCOC2)c1ccc(C(=O)O)cc1 [L001],PGE2-driven YAP/TEAD reporter activity,[1],remarkably suppressed
same,IC50,[2],3.2 ± 0.28 nM
same,IC50,[3],14.2 ± 0.88 nM
same,PGE2-aroused upregulation of mRNA levels of Vimentin and Snail,[4],remarkably abrogated
same,PGE2-mediated downregulation of E-cadherin's expression,[4],reversed
same,"mRNA expression levels of YAP, CYR61 and CTGF induced by PGE2, in comparison with E7046","[4]; PGE2 0.1 μM, compound 10 μM",stronger reductions
same,IC50,[5],> 10000 nM
same,PGE2-induced phosphorylation of ERK1/2,[6],significantly blocked
same,spheroid invasion morphology (filopodium-like protrusions),[7],completely retracted PGE2-induced membrane surface projections
same,migrated cells in the lower layer of the transwell,[8],reduced migrated cells
same,"mRNA expression levels of YAP, CYR61 and CTGF induced by PGE2, in comparison with E7046",[9],stronger reductions
same,PGE2-driven YAP/TEAD reporter activity,[10],remarkably suppressed
same,cell viability,[11],did not affect the cell viabilities
same,IC50,[12],> 10000 nM
